Conditions: Liquid, Vibrating tube method

CC(C)CO [2-methyl-1-propanol]
Conditions	mass density [kg/m3]
303.15 K, 20042 kPa	809.402
303.15 K, 25084 kPa	812.578
303.15 K, 30167 kPa	816.191
303.15 K, 32070 kPa	817.319
303.15 K, 33147 kPa	817.694
303.15 K, 35162 kPa	818.815
303.15 K, 38019 kPa	820.574
303.15 K, 39970 kPa	821.716
303.15 K, 42004 kPa	823.024
303.15 K, 45033 kPa	824.95
303.15 K, 49864 kPa	827.592
303.15 K, 52115 kPa	829.036
303.15 K, 55239 kPa	830.776
303.15 K, 58089 kPa	832.479
303.15 K, 60079 kPa	833.282
303.15 K, 62294 kPa	834.706
303.15 K, 65137 kPa	835.715
303.16 K, 270.1 kPa	793.901
303.16 K, 464.4 kPa	794.084
303.16 K, 779.6 kPa	794.287
303.16 K, 2945 kPa	796.031
303.16 K, 4911.2 kPa	797.923
303.16 K, 7058.6 kPa	799.569
303.16 K, 12047 kPa	803.47
303.16 K, 22055 kPa	811.092
303.16 K, 28094 kPa	815.049
303.16 K, 32939 kPa	817.604
303.16 K, 34037 kPa	818.139
303.16 K, 48317 kPa	826.769
303.16 K, 66124 kPa	836.43
308.15 K, 96.7 kPa	791.579
308.15 K, 250.6 kPa	791.714
308.15 K, 562.2 kPa	791.995
308.15 K, 991.9 kPa	792.349
308.15 K, 5219.3 kPa	795.881
308.15 K, 10282 kPa	799.926
308.15 K, 15083 kPa	803.575
308.15 K, 32866 kPa	815.75
308.15 K, 35203 kPa	817.171
308.15 K, 48031 kPa	824.96
308.15 K, 55094 kPa	828.952
308.15 K, 60161 kPa	831.729
308.15 K, 62192 kPa	832.798
308.15 K, 66004 kPa	834.804
308.16 K, 770.2 kPa	792.158
308.16 K, 2101.2 kPa	793.3
308.16 K, 3195.1 kPa	794.224
308.16 K, 7083 kPa	797.398
308.16 K, 9108 kPa	799.011
308.16 K, 12379 kPa	801.538
308.16 K, 18161 kPa	805.827
308.16 K, 20006 kPa	807.165
308.16 K, 22192 kPa	808.686
308.16 K, 25100 kPa	810.705
308.16 K, 27887 kPa	812.568
308.16 K, 30041 kPa	813.99
308.16 K, 31933 kPa	815.242
308.16 K, 33077 kPa	815.959
308.16 K, 34026 kPa	816.482
308.16 K, 35193 kPa	817.245
308.16 K, 38088 kPa	818.995
308.16 K, 40106 kPa	820.225
308.16 K, 42282 kPa	821.541
308.16 K, 45145 kPa	823.251
308.16 K, 50089 kPa	826.126
308.16 K, 52047 kPa	827.233
308.16 K, 58085 kPa	830.585
308.16 K, 65217 kPa	834.405
313.15 K, 82.9 kPa	787.4
313.15 K, 316.8 kPa	787.607
313.15 K, 491.8 kPa	787.767
313.15 K, 890.9 kPa	788.108
313.15 K, 981.5 kPa	788.182
313.15 K, 1939.6 kPa	789.038
313.15 K, 2951 kPa	789.905
313.15 K, 4889.1 kPa	791.537
313.15 K, 6856.5 kPa	793.195
313.15 K, 8886.9 kPa	794.841
313.15 K, 10029 kPa	795.77
313.15 K, 11886 kPa	797.214
313.15 K, 14927 kPa	799.577
313.15 K, 17845 kPa	801.775
313.15 K, 20040 kPa	803.389
313.15 K, 21942 kPa	804.76
313.15 K, 24894 kPa	806.85
313.15 K, 28132 kPa	809.095
313.15 K, 29974 kPa	810.333
313.15 K, 32058 kPa	811.716
313.15 K, 35162 kPa	813.664
313.15 K, 37952 kPa	815.444
313.15 K, 40011 kPa	816.732
313.15 K, 41939 kPa	817.878
313.15 K, 45098 kPa	819.95
313.15 K, 47966 kPa	821.512
313.15 K, 49918 kPa	822.65
313.15 K, 52024 kPa	823.857
313.15 K, 54951 kPa	825.557
313.15 K, 58062 kPa	827.336
313.15 K, 60202 kPa	828.515
313.15 K, 65050 kPa	831.15
313.15 K, 66082 kPa	831.7
313.16 K, 33053 kPa	812.371
313.16 K, 33131 kPa	812.356
313.16 K, 34040 kPa	812.94
313.16 K, 62187 kPa	829.599
318.15 K, 368.3 kPa	783.457
318.15 K, 589.4 kPa	783.667
318.15 K, 9887.6 kPa	791.657
318.15 K, 33065 kPa	808.852
318.15 K, 33128 kPa	808.894
318.15 K, 35190 kPa	810.134
318.15 K, 48088 kPa	818.249
318.15 K, 52184 kPa	820.67
318.15 K, 60194 kPa	825.273
318.15 K, 62260 kPa	826.409
318.15 K, 65194 kPa	828.017
318.15 K, 66060 kPa	828.484
318.16 K, 128.5 kPa	783.253
318.16 K, 858.2 kPa	783.902
318.16 K, 1069.5 kPa	784.105
318.16 K, 1979.1 kPa	784.923
318.16 K, 2997.4 kPa	785.79
318.16 K, 4942.6 kPa	787.513
318.16 K, 6987.2 kPa	789.27
318.16 K, 8967.5 kPa	790.929
318.16 K, 11870 kPa	793.265
318.16 K, 14863 kPa	795.639
318.16 K, 17735 kPa	797.848
318.16 K, 19860 kPa	799.438
318.16 K, 21987 kPa	801.004
318.16 K, 25193 kPa	803.357
318.16 K, 27823 kPa	805.216
318.16 K, 30119 kPa	806.799
318.16 K, 32145 kPa	808.205
318.16 K, 34164 kPa	809.488
318.16 K, 38074 kPa	812.009
318.16 K, 40048 kPa	813.265
318.16 K, 41997 kPa	814.496
318.16 K, 45096 kPa	816.426
318.16 K, 50173 kPa	819.491
318.16 K, 55235 kPa	822.46
318.16 K, 58075 kPa	824.084
323.15 K, 62.1 kPa	778.89
323.15 K, 338 kPa	779.159
323.15 K, 557.5 kPa	779.374
323.15 K, 917.3 kPa	779.697
323.15 K, 2125.4 kPa	780.833
323.15 K, 3154.8 kPa	781.778
323.15 K, 5126.4 kPa	783.557
323.15 K, 7366.8 kPa	785.517
323.15 K, 9081.6 kPa	787.01
323.15 K, 10156 kPa	787.907
323.15 K, 12167 kPa	789.544
323.15 K, 15030 kPa	791.876
323.15 K, 18076 kPa	794.274
323.15 K, 19932 kPa	795.694
323.15 K, 22079 kPa	797.333
323.15 K, 25085 kPa	799.541
323.15 K, 28006 kPa	801.644
323.15 K, 30029 kPa	803.084
323.15 K, 31969 kPa	804.431
